From patent US11377442B2, “Small molecule agonists and antagonists of NR2F6 activity” (ZANDER THERAPEUTICS, INC., priority 2016, dated 2022)
Like-named read-outs stand apart in the source and are kept apart here. Values belong to the molecule of their own block, whether it stands above or below them.

What was measured:
Format in all cases: cell-based
NR2F6 = molecular target: T1, NR2F6 (Homo sapiens, UniProt P10588); experiment: NR2F6 agonist screening, Firefly signal cmpd/DMSO
T1 construct: expressed in transfected cells; also transient transfection
T1 sequence (P10588 1-404): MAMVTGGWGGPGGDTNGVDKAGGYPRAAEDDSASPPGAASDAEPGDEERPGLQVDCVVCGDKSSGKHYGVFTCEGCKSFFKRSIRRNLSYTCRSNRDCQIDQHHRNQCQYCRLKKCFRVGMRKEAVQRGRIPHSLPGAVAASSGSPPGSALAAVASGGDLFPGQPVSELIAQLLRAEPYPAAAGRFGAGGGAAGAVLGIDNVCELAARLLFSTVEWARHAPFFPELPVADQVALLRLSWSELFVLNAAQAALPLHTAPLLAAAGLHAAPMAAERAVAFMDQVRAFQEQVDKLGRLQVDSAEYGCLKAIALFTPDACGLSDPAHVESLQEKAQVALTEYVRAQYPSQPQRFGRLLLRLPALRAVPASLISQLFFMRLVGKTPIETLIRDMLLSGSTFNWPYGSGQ

Renilla [1] = experiment: Renilla signal in NR2F6 agonist screening, cmpd/DMSO; settings: Renilla
HEK293 pGL4 = experiment: Firefly_pGL signal, cmpd/DMSO (pGL4 control cells); settings: Homo sapiens
Renilla [2] = experiment: Renilla signal, LBD, cmpd/DMSO (NR2F6 LBD transfected cells)
NR2F6 LBD = molecular target: T2, NR2F6 LBD (Homo sapiens, UniProt P10588); experiment: NR2F6 LBD transient transfection
T2 construct: expressed in transfected cells
T2 sequence (P10588 165-393 limits assumed): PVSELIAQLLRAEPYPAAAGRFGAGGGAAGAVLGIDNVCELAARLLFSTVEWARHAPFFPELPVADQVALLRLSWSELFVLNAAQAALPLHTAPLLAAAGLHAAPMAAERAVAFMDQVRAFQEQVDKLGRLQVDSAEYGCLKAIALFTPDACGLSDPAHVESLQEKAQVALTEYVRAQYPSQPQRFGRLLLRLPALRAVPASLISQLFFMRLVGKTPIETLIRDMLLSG
Outline: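 LBD-transfected cells treated at 40, 10, 2 and 0.5 μM (4 replicates); cytotoxicity measured in parallel, normalized to DMSO (0%) and zero signal (100%). Higher concentrations excluded where signal loss reflected toxicity.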

[3] = read-out: Renilla F4, cmpd/DMSO (mean)
[4] = F4, 1% FBS, read-out: Renilla, F4, 1% FBS, cmpd/DMSO (mean)
[5] = F4, 10% FBS, read-out: Renilla, F4, 10% FBS, cmpd/DMSO (mean)
[6] = HEK293, 0.5 uM, read-out: Firefly pGL4, cmpd/DMSO (mean)
[7] = HEK293, 2 uM, read-out: Firefly pGL4, cmpd/DMSO (mean)
[8] = HEK293, 10 uM, read-out: Firefly pGL4, cmpd/DMSO (mean)
[9] = HEK293, 40 uM, read-out: Firefly pGL4, cmpd/DMSO (mean)
[10] = HEK293, pGL4, 1% FBS, 0.5 uM, read-out: Firefly, pGL4, 1% FBS, cmpd/DMSO (mean)
[11] = HEK293, pGL4, 1% FBS, 2 uM, read-out: Firefly, pGL4, 1% FBS, cmpd/DMSO (mean)
[12] = HEK293, pGL4, 1% FBS, 10 uM, read-out: Firefly, pGL4, 1% FBS, cmpd/DMSO (mean)
[13] = HEK293, pGL4, 1% FBS, 40 uM, read-out: Firefly, pGL4, 1% FBS, cmpd/DMSO (mean)
[14] = HEK293, pGL4, 10% FBS, 0.5 uM, read-out: Firefly, pGL4, 10% FBS, cmpd/DMSO (mean)
[15] = HEK293, pGL4, 10% FBS, 2 uM, read-out: Firefly, pGL4, 10% FBS, cmpd/DMSO (mean)
[16] = HEK293, pGL4, 10% FBS, 10 uM, read-out: Firefly, pGL4, 10% FBS, cmpd/DMSO (mean)
[17] = HEK293, pGL4, 10% FBS, 40 uM, read-out: Firefly, pGL4, 10% FBS, cmpd/DMSO (mean)

Firefly F4, cmpd/DMSO (mean) (NR2F6; 0.5 uM): 1.5
Firefly F4, cmpd/DMSO (mean) (NR2F6; 2 uM): 2.3
Firefly F4, cmpd/DMSO (mean) (NR2F6; 10 uM): 2.1
Firefly F4, cmpd/DMSO (mean) (NR2F6; 40 uM): 2.8
F4, Firefly/Renilla for S/B(F4) > 3 (NR2F6; 1% FBS, 40 uM): 2.6
Firefly, F4/pGL4 for S/B(F4) > 3 (NR2F6; 1% FBS, 40 uM): 4.0
F4, Firefly/Renilla for S/B(F4) > 3 (NR2F6; 10% FBS, 40 uM): 2.3
Firefly, F4/pGL4 for S/B(F4) > 3 (NR2F6; 10% FBS, 40 uM): 2.3
Firefly, F4, 1% FBS, cmpd/DMSO (mean) (NR2F6; 1% FBS, 0.5 uM): 1.0
Firefly, F4, 1% FBS, cmpd/DMSO (mean) (NR2F6; 1% FBS, 2 uM): 1.2
Firefly, F4, 1% FBS, cmpd/DMSO (mean) (NR2F6; 1% FBS, 10 uM): 2.0
Firefly, F4, 1% FBS, cmpd/DMSO (mean) (NR2F6; 1% FBS, 40 uM): 5.4
Firefly, F4, 10% FBS, cmpd/DMSO (mean) (NR2F6; 10% FBS, 0.5 uM): 1.1
Firefly, F4, 10% FBS, cmpd/DMSO (mean) (NR2F6; 10% FBS, 2 uM): 1.0
Firefly, F4, 10% FBS, cmpd/DMSO (mean) (NR2F6; 10% FBS, 10 uM): 2.1
Firefly, F4, 10% FBS, cmpd/DMSO (mean) (NR2F6; 10% FBS, 40 uM): 4.6
Firefly LBD, cmpd/DMSO (mean) (NR2F6 LBD; 0.5 uM): 1.5
Firefly LBD, cmpd/DMSO (mean) (NR2F6 LBD; 2 uM): 1.5
Firefly LBD, cmpd/DMSO (mean) (NR2F6 LBD; 10 uM): 1.9
Firefly LBD, cmpd/DMSO (mean) (NR2F6 LBD; 40 uM): 1.8
Compound: O=S1(=O)C[C@H](NCC2CCCO2)[C@@H](S(=O)(=O)c2cccs2)C1 (stereo partly drawn) [Compound D134]
fold induction at 0.5 µM (Renilla [1]; [3]): 1.1
fold induction at 2 µM (Renilla [1]; [3]): 1.2
fold induction at 10 µM (Renilla [1]; [3]): 1.3
fold induction at 40 µM (Renilla [1]; [3]): 1.5
fold induction at 0.5 µM (Renilla [1]; [4]): 1
fold induction at 2 µM (Renilla [1]; [4]): 1.2
fold induction at 10 µM (Renilla [1]; [4]): 1.4
fold induction at 40 µM (Renilla [1]; [4]): 2.1
fold induction at 0.5 µM (Renilla [1]; [5]): 1
fold induction at 2 µM (Renilla [1]; [5]): 1
fold induction at 10 µM (Renilla [1]; [5]): 1.3
fold induction at 40 µM (Renilla [1]; [5]): 2
fold induction at 0.5 µM (HEK293 pGL4; [6]): 1
fold induction at 2 µM (HEK293 pGL4; [7]): 1.3
fold induction at 10 µM (HEK293 pGL4; [8]): 1.6
fold induction at 40 µM (HEK293 pGL4; [9]): 1.7
fold induction at 0.5 µM (HEK293 pGL4; [10]): 1
fold induction at 2 µM (HEK293 pGL4; [11]): 1.3
fold induction at 10 µM (HEK293 pGL4; [12]): 1.3
fold induction at 40 µM (HEK293 pGL4; [13]): 1.4
fold induction at 0.5 µM (HEK293 pGL4; [14]): 1.2
fold induction at 2 µM (HEK293 pGL4; [15]): 1.3
fold induction at 10 µM (HEK293 pGL4; [16]): 1.7
fold induction at 40 µM (HEK293 pGL4; [17]): 2
Renilla LBD, cmpd/DMSO (mean) (Renilla [2]; 0.5 uM): 0.9
Renilla LBD, cmpd/DMSO (mean) (Renilla [2]; 2 uM): 0.9
Renilla LBD, cmpd/DMSO (mean) (Renilla [2]; 10 uM): 1.0
Renilla LBD, cmpd/DMSO (mean) (Renilla [2]; 40 uM): 0.7

Firefly F4, cmpd/DMSO (mean) (NR2F6; 0.5 uM): 1.7
Firefly F4, cmpd/DMSO (mean) (NR2F6; 2 uM): 2.4
Firefly F4, cmpd/DMSO (mean) (NR2F6; 10 uM): 1.9
Firefly F4, cmpd/DMSO (mean) (NR2F6; 40 uM): 2.8
F4, Firefly/Renilla for S/B(F4) > 3 (NR2F6; 1% FBS, 40 uM): 1.9
Firefly, F4/pGL4 for S/B(F4) > 3 (NR2F6; 1% FBS, 40 uM): 3.0
F4, Firefly/Renilla for S/B(F4) > 3 (NR2F6; 10% FBS, 40 uM): 1.9
Firefly, F4/pGL4 for S/B(F4) > 3 (NR2F6; 10% FBS, 40 uM): 2.3
Firefly, F4, 1% FBS, cmpd/DMSO (mean) (NR2F6; 1% FBS, 0.5 uM): 1.2
Firefly, F4, 1% FBS, cmpd/DMSO (mean) (NR2F6; 1% FBS, 2 uM): 1.6
Firefly, F4, 1% FBS, cmpd/DMSO (mean) (NR2F6; 1% FBS, 10 uM): 1.1
Firefly, F4, 1% FBS, cmpd/DMSO (mean) (NR2F6; 1% FBS, 40 uM): 3.3
Firefly, F4, 10% FBS, cmpd/DMSO (mean) (NR2F6; 10% FBS, 0.5 uM): 1.0
Firefly, F4, 10% FBS, cmpd/DMSO (mean) (NR2F6; 10% FBS, 2 uM): 0.7
Firefly, F4, 10% FBS, cmpd/DMSO (mean) (NR2F6; 10% FBS, 10 uM): 1.8
Firefly, F4, 10% FBS, cmpd/DMSO (mean) (NR2F6; 10% FBS, 40 uM): 3.7
Firefly LBD, cmpd/DMSO (mean) (NR2F6 LBD; 0.5 uM): 1.4
Firefly LBD, cmpd/DMSO (mean) (NR2F6 LBD; 2 uM): 1.7
Firefly LBD, cmpd/DMSO (mean) (NR2F6 LBD; 10 uM): 1.6
Firefly LBD, cmpd/DMSO (mean) (NR2F6 LBD; 40 uM): 2.8
Compound: O=S1(=O)C[C@H](NCc2ccco2)[C@@H](S(=O)(=O)c2cccs2)C1 [Compound D135]
fold induction at 0.5 µM (Renilla [1]; [3]): 0.9
fold induction at 2 µM (Renilla [1]; [3]): 1.2
fold induction at 10 µM (Renilla [1]; [3]): 1
fold induction at 40 µM (Renilla [1]; [3]): 1.3
fold induction at 0.5 µM (Renilla [1]; [4]): 1
fold induction at 2 µM (Renilla [1]; [4]): 1.3
fold induction at 10 µM (Renilla [1]; [4]): 1.2
fold induction at 40 µM (Renilla [1]; [4]): 1.7
fold induction at 0.5 µM (Renilla [1]; [5]): 1
fold induction at 2 µM (Renilla [1]; [5]): 1.1
fold induction at 10 µM (Renilla [1]; [5]): 1.1
fold induction at 40 µM (Renilla [1]; [5]): 1.9
fold induction at 0.5 µM (HEK293 pGL4; [6]): 1
fold induction at 2 µM (HEK293 pGL4; [7]): 1.6
fold induction at 10 µM (HEK293 pGL4; [8]): 1.4
fold induction at 40 µM (HEK293 pGL4; [9]): 1.3
fold induction at 0.5 µM (HEK293 pGL4; [10]): 1
fold induction at 2 µM (HEK293 pGL4; [11]): 1
fold induction at 10 µM (HEK293 pGL4; [12]): 0.8
fold induction at 40 µM (HEK293 pGL4; [13]): 1.1
fold induction at 0.5 µM (HEK293 pGL4; [14]): 0.9
fold induction at 2 µM (HEK293 pGL4; [15]): 1.1
fold induction at 10 µM (HEK293 pGL4; [16]): 1.7
fold induction at 40 µM (HEK293 pGL4; [17]): 1.6
Renilla LBD, cmpd/DMSO (mean) (Renilla [2]; 0.5 uM): 0.9
Renilla LBD, cmpd/DMSO (mean) (Renilla [2]; 2 uM): 0.9
Renilla LBD, cmpd/DMSO (mean) (Renilla [2]; 10 uM): 0.8
Renilla LBD, cmpd/DMSO (mean) (Renilla [2]; 40 uM): 0.9
